Assay results from patent US11753407B2, “Compounds for treating spinal muscular atrophy” (PTC Therapeutics, Inc., priority 2012, dated 2023).

Experiments:
[1] = test system: SMN2 minigene mRNA (SMN2-A minigene) in HEK293H cells; assay: SMN2 minigene mRNA splicing RT-qPCR assay in cultured cells; type: cell-based, human; details: Homo sapiens, HEK293-H; concentration increasing full length SMN2 mRNA 1.5-fold relative to vehicle-treated cells; HEK293H cells with SMN2-A minigene, 24 hours, 7-point concentration data; read-out: EC1.5x for production of full length SMN2 mRNA
Method in brief: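 EC1.5× values derive from a 24 h treatment of SMN2-A minigene HEK293H cells and GAPDH-normalized RT-qPCR of exon 7-included minigene mRNA relative to vehicle-treated cells.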

[2] = test system: Smn protein in SMA patient fibroblast cells (GM03813); assay: Smn protein assay in cultured cells (SMN HTRF); type: cell-based, human; details: SMA patient fibroblast cells, 48 hours; for EC1.5x for Smn protein expression: 7-point concentration curve, SMN HTRF, concentration producing 1.5 times Smn protein vs DMSO vehicle control; for maximum fold (Fold) increase of Smn protein: 7-point concentration data, fold relative to vehicle control
Method in brief: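 Cells were cultured 72 h, seeded at 5,000/well and dosed with seven concentrations (3.16-fold apart) for 48 h. HTRF on lysates, read at 665 and 620 nm, gave blank-corrected ΔF values relative to DMSO. Potency is reported as EC1.5×, efficacy as maximal fold Smn increase.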

| SMILES | melting point [°C] | EC (1.5-fold increase) [1] [µM] | EC1.5x for Smn protein expression [2] | maximum fold (Fold) increase of Smn protein [2] |
| --- | --- | --- | --- | --- |
| CCc1nc(C)cn2nc(-c3cc(=O)n4cc(C5CCN(CC)CC5)ncc4n3)cc12 [Compound 655, 2-(4-ethyl-6-methylpyrazolo[1,5-a]pyrazin-2-yl)-7-(1-ethylpiperidin-4-yl)-4H-pyrazino[1,2-a]pyrimidin-4-one] | 273 to 275 | < 0.1 | **** (an EC1.5x≤0.3 μM is indicated by four stars (****)) | **** (a fold increase between >1.5 and ≤1.65 is indicated by four stars (****)) |
| CCc1nc(C)cn2nc(-c3cc(=O)n4cc(C5CCNCC5)ccc4n3)cc12 [Compound 656, 2-(4-ethyl-6-methylpyrazolo[1,5-a]pyrazin-2-yl)-7-(piperidin-4-yl)-4H-pyrido[1,2-a]pyrimidin-4-one] | 236 to 238 | < 0.1 | **** (an EC1.5x≤0.3 μM is indicated by four stars (****)) | **** (a fold increase between >1.5 and ≤1.65 is indicated by four stars (****)) |
| CCc1nc(C)cn2nc(-c3cc(=O)n4cc(C5CCN(CC)CC5)ccc4n3)cc12 [Compound 658, 2-(4-ethyl-6-methylpyrazolo[1,5-a]pyrazin-2-yl)-7-(1-ethylpiperidin-4-yl)-4H-pyrido[1,2-a]pyrimidin-4-one] | 194 to 196 | < 0.1 | **** (an EC1.5x≤0.3 μM is indicated by four stars (****)) | ***** (a fold increase >1.65 is indicated by five stars (*****)) |
| CCc1nc(C)cn2nc(-c3cc(=O)n4cc(C5CCN(CCO)CC5)ccc4n3)cc12 [Compound 659, 2-(4-ethyl-6-methylpyrazolo[1,5-a]pyrazin-2-yl)-7-[1-(2-hydroxyethyl)piperidin-4-yl]-4H-pyrido[1,2-a]pyrimidin-4-one] | 207 to 209 | < 0.1 | **** (an EC1.5x≤0.3 μM is indicated by four stars (****)) | ***** (a fold increase >1.65 is indicated by five stars (*****)) |
| CCCN1CCC(c2ccc3nc(-c4cc5c(CC)nc(C)cn5n4)cc(=O)n3c2)CC1 [Compound 660, 2-(4-ethyl-6-methylpyrazolo[1,5-a]pyrazin-2-yl)-7-(1-propylpiperidin-4-yl)-4H-pyrido[1,2-a]pyrimidin-4-one] | 203 to 204 | < 0.1 | **** (an EC1.5x≤0.3 μM is indicated by four stars (****)) | **** (a fold increase between >1.5 and ≤1.65 is indicated by four stars (****)) |
| Cc1cn2nc(-c3cc(=O)n4cc(C5CCN(CCCF)CC5)ccc4n3)cc2c(C)n1 [Compound 663, 2-(4,6-dimethylpyrazolo[1,5-a]pyrazin-2-yl)-7-[1-(3-fluoropropyl)piperidin-4-yl]-4H-pyrido[1,2-a]pyrimidin-4-one] | 186 to 188 | < 0.1 | **** (an EC1.5x≤0.3 μM is indicated by four stars (****)) | ***** (a fold increase >1.65 is indicated by five stars (*****)) |

More lines, main results first:

| melting point [°C] | SMILES | EC (1.5-fold increase) [1] [µM] | EC1.5x for Smn protein expression [2] | maximum fold (Fold) increase of Smn protein [2] |
| --- | --- | --- | --- | --- |
| 209 to 212 | CCc1cc(-c2cc(=O)n3cc(N4CCN(C5CCC5)[C@H](C)C4)ccc3n2)cn2cc(C)nc12 [Compound 650, 7-[(3R)-4-cyclobutyl-3-methylpiperazin-1-yl]-2-(8-ethyl-2-methylimidazo[1,2-a]pyridin-6-yl)-4H-pyrido[1,2-a]pyrimidin-4-one] | < 0.1 | **** (an EC1.5x≤0.3 μM is indicated by four stars (****)) | ***** (a fold increase >1.65 is indicated by five stars (*****)) |
| 220 to 223 | CCc1cc(-c2cc(=O)n3cc(N4CCN(CCO)[C@@H](C)C4)ccc3n2)cn2cc(C)nc12 [Compound 651, 2-(8-ethyl-2-methylimidazo[1,2-a]pyridin-6-yl)-7-[(3S)-4-(2-hydroxyethyl)-3-methylpiperazin-1-yl]-4H-pyrido[1,2-a]pyrimidin-4-one] | < 0.1 | **** (an EC1.5x≤0.3 μM is indicated by four stars (****)) | ***** (a fold increase >1.65 is indicated by five stars (*****)) |
| 261 to 263 | CCc1nc(C)cn2nc(-c3cc(=O)n4cc(C5CCN(C)CC5)ncc4n3)cc12 [Compound 654, 2-(4-ethyl-6-methylpyrazolo[1,5-a]pyrazin-2-yl)-7-(1-methylpiperidin-4-yl)-4H-pyrazino[1,2-a]pyrimidin-4-one] | < 0.1 | **** (an EC1.5x≤0.3 μM is indicated by four stars (****)) | ***** (a fold increase >1.65 is indicated by five stars (*****)) |
| 190 to 192 | CCc1nc(C)cn2nc(-c3cc(=O)n4cc(C5CCN(C)CC5)ccc4n3)cc12 [Compound 657, 2-(4-ethyl-6-methylpyrazolo[1,5-a]pyrazin-2-yl)-7-(1-methylpiperidin-4-yl)-4H-pyrido[1,2-a]pyrimidin-4-one] | < 0.1 | **** (an EC1.5x≤0.3 μM is indicated by four stars (****)) | ***** (a fold increase >1.65 is indicated by five stars (*****)) |
| 185 to 188 | CCc1nc(C)cn2nc(-c3cc(=O)n4cc(N5CCN[C@H](C)C5)ccc4n3)cc12 [Compound 661, 2-(4-ethyl-6-methylpyrazolo[1,5-a]pyrazin-2-yl)-7-[(3R)-3-methylpiperazin-1-yl]-4H-pyrido[1,2-a]pyrimidin-4-one] | < 0.1 | **** (an EC1.5x≤0.3 μM is indicated by four stars (****)) | ***** (a fold increase >1.65 is indicated by five stars (*****)) |
| 245 to 247 | CCc1nc(C)cn2nc(-c3cc(=O)n4cc(N5CCN(CCF)CC5)ccc4n3)cc12 [Compound 664, 2-(4-ethyl-6-methylpyrazolo[1,5-a]pyrazin-2-yl)-7-[4-(2-fluoroethyl)piperazin-1-yl]-4H-pyrido[1,2-a]pyrimidin-4-one] | 0.3 to 1 | *** (an EC1.5× between >0.3 μM and ≤1 μM is indicated by three stars (***)) | ***** (a fold increase >1.65 is indicated by five stars (*****)) |
| 240 to 242 | CCc1nc(C)cn2nc(-c3cc(=O)n4cc(N5CCN(CCCF)CC5)ccc4n3)cc12 [Compound 665, 2-(4-ethyl-6-methylpyrazolo[1,5-a]pyrazin-2-yl)-7-[4-(3-fluoropropyl)piperazin-1-yl]-4H-pyrido[1,2-a]pyrimidin-4-one] | 0.1 to 0.3 | **** (an EC1.5x≤0.3 μM is indicated by four stars (****)) | ***** (a fold increase >1.65 is indicated by five stars (*****)) |
